Experiments:
[1] = target: T1, COS-7/AMY3 (human calcitonin receptor (CTR) and RAMP3) (Homo sapiens, UniProt O60896+P30988); experiment: Amylin Receptor cAMP Assay II; type: cell-based; settings: values marked **: Amylin Receptor cAMP Assay II; COS-7/AMY3 cells, cAMP dynamic 2 kit, 30 min; read-out: Amylin Receptor cAMP Stimulation Activity: EC50
T1 construct: expressed in transfected cells; host or cells: COS-7
Method in brief: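 COS-7 cells stably co-expressing human CTR and RAMP3 (AMY3), 2000 cells/well in HBSS with 20 mM HEPES, 0.5 mM IBMX, 0.1% casein, stimulated with compound for 30 min at 37 °C. cAMP measured by HTRF (665/615 nm), activity normalized between vehicle and maximal control.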

[2] = target: T2, human calcitonin receptor (CTR) (Homo sapiens, UniProt P30988); experiment: Calcitonin Receptor (CTR) cAMP Assay; type: cell-based; settings: COS7-human CTR Clone #2 stable cell line, cAMP dynamic 2 kit, 30 min; read-out: Calcitonin Receptor cAMP Stimulation Activity: EC50
T2 construct: expressed in transfected cells; host or cells: COS-7 (COS7-human CTR Clone #2)
T2 sequence (P30988 25-474): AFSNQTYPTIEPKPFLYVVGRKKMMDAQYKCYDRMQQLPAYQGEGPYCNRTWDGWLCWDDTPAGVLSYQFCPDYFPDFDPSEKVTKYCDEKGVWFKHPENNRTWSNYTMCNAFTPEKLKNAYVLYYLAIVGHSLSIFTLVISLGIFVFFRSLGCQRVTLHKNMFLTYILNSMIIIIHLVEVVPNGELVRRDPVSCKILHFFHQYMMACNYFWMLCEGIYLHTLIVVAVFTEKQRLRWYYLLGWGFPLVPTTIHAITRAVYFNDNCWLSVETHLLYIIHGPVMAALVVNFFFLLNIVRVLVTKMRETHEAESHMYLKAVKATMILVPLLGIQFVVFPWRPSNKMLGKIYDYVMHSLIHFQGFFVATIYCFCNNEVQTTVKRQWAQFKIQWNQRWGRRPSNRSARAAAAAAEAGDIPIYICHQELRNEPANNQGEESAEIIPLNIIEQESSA
Method in brief: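 COS-7 cells stably expressing human CTR (2000 cells/well) were incubated 30 min at 37 °C with 4-fold serially diluted compound in HBSS/20 mM HEPES/0.5 mM IBMX/0.1% casein. cAMP was detected by HTRF (665/615 nm) after 1 h at RT. % activity was normalised to vehicle and positive controls.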

T1 sequence (O60896 24-148, one chain of several): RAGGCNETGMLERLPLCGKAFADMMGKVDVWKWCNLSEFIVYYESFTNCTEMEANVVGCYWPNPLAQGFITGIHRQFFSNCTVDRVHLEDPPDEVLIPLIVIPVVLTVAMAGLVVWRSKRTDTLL

Row | Compound | EC50 [1] | EC50 [2]
1 | O=C1c2c(nc(CCc3ccc(F)cc3)c(-c3n[nH]c(=O)o3)c2-c2cc3ccnc(N[C@@H]4CCc5c(F)cccc54)c3s2)C23CC(CN12)C3 [Compound 272, (R)-5-(4-(7-((4-fluoro-2,3-dihydro-1H-inden-1-yl)amino)thieno[2,3-c]pyridin-2-yl)-2-(4-fluorophenethyl)-5-oxo-8,9-dihydro-5H,7H-8,9a-methanopyrido[2,3-a]pyrrolizin-3-yl)-1,3,4-oxadiazol-2(3H)-one] | 1.45 nM | 0.0666 nM
2 | O=C1c2c(nc(CCc3ccc(F)cc3)c(-c3n[nH]c(=O)o3)c2-c2cc3ccnc(N[C@@H]4CCc5cc(Cl)ccc54)c3s2)C23CC(CN12)C3 [Compound 273, (R)-5-(4-(7-((5-chloro-2,3-dihydro-1H-inden-1-yl)amino)thieno[2,3-c]pyridin-2-yl)-2-(4-fluorophenethyl)-5-oxo-8,9-dihydro-5H,7H-8,9a-methanopyrido[2,3-a]pyrrolizin-3-yl)-1,3,4-oxadiazol-2(3H)-one] | 1.79 nM | 0.165 nM
3 | O=C1c2c(nc(CCc3ccc(F)cc3)c(-c3n[nH]c(=O)o3)c2-c2cc3ccnc(N[C@@H]4CCc5ccc(Cl)cc54)c3s2)C23CC(CN12)C3 [Compound 274, (R)-5-(4-(7-((6-chloro-2,3-dihydro-1H-inden-1-yl)amino)thieno[2,3-c]pyridin-2-yl)-2-(4-fluorophenethyl)-5-oxo-8,9-dihydro-5H,7H-8,9a-methanopyrido[2,3-a]pyrrolizin-3-yl)-1,3,4-oxadiazol-2(3H)-one] | 4.54 nM | 0.255 nM
4 | COc1c(F)ccc2c1CC[C@H]2Nc1nccc2cc(-c3c4c(nc(CCc5cccc(F)c5)c3-c3n[nH]c(=O)o3)C35CC(CN3C4=O)C5)sc12 [Compound 275, (R)-5-(4-(7-((5-fluoro-4-methoxy-2,3-dihydro-1H-inden-1-yl)amino)thieno[2,3-c]pyridin-2-yl)-2-(3-fluorophenethyl)-5-oxo-8,9-dihydro-5H,7H-8,9a-methanopyrido[2,3-a]pyrrolizin-3-yl)-1,3,4-oxadiazol-2(3H)-one] | 0.394 nM | 0.0262 nM
5 | COc1c(F)ccc2c1CC[C@H]2Nc1nccc2cc(-c3c4c(nc(CCc5ccccc5F)c3-c3n[nH]c(=O)o3)C35CC(CN3C4=O)C5)sc12 [Compound 276, (R)-5-(4-(7-((5-fluoro-4-methoxy-2,3-dihydro-1H-inden-1-yl)amino)thieno[2,3-c]pyridin-2-yl)-2-(2-fluorophenethyl)-5-oxo-8,9-dihydro-5H,7H-8,9a-methanopyrido[2,3-a]pyrrolizin-3-yl)-1,3,4-oxadiazol-2(3H)-one] | 1.57 nM | 0.0602 nM
6 | COc1c(F)ccc2c1CC[C@H]2Nc1nccc2cc(-c3c4c(nc(CCc5cccc(Cl)c5)c3-c3n[nH]c(=O)o3)C35CC(CN3C4=O)C5)sc12 [Compound 277, (R)-5-(2-(3-chlorophenethyl)-4-(7-((5-fluoro-4-methoxy-2,3-dihydro-1H-inden-1-yl)amino)thieno[2,3-c]pyridin-2-yl)-5-oxo-8,9-dihydro-5H,7H-8,9a-methanopyrido[2,3-a]pyrrolizin-3-yl)-1,3,4-oxadiazol-2(3H)-one] | 0.368 nM | 0.0207 nM
7 | COc1c(F)ccc2c1CC[C@H]2Nc1nccc2cc(-c3c4c(nc(CCc5ccccc5Cl)c3-c3n[nH]c(=O)o3)C35CC(CN3C4=O)C5)sc12 [Compound 278, (R)-5-(2-(2-chlorophenethyl)-4-(7-((5-fluoro-4-methoxy-2,3-dihydro-1H-inden-1-yl)amino)thieno[2,3-c]pyridin-2-yl)-5-oxo-8,9-dihydro-5H,7H-8,9a-methanopyrido[2,3-a]pyrrolizin-3-yl)-1,3,4-oxadiazol-2(3H)-one] | 0.517 nM | 0.0636 nM
8 | O=C1c2c(nc(CCc3ccc(F)cc3)c(-c3n[nH]c(=O)o3)c2-c2cc3ccnc(N[C@@H]4CCc5c(F)cc(F)cc54)c3s2)C23CC(CN12)C3 [Compound 279, (R)-5-(4-(7-((4,6-difluoro-2,3-dihydro-1H-inden-1-yl)amino)thieno[2,3-c]pyridin-2-yl)-2-(4-fluorophenethyl)-5-oxo-5,7,8,9-tetrahydro-8,9a-methanopyrido[2,3-a]pyrrolizin-3-yl)-1,3,4-oxadiazol-2(3H)-one] | 0.318 nM | 0.051 nM
9 | O=C1c2c(nc(CCc3ccc(F)cc3)c(-c3n[nH]c(=O)o3)c2-c2cc3ccnc(N[C@@H]4CCc5cc(F)ccc54)c3s2)C23CC(CN12)C3 [Compound 280, (R)-5-(4-(7-((5-fluoro-2,3-dihydro-1H-inden-1-yl)amino)thieno[2,3-c]pyridin-2-yl)-2-(4-fluorophenethyl)-5-oxo-5,7,8,9-tetrahydro-8,9a-methanopyrido[2,3-a]pyrrolizin-3-yl)-1,3,4-oxadiazol-2(3H)-one] | 0.935 nM | 0.114 nM
10 | COc1cccc2c1CC(F)(F)[C@H]2Nc1nccc2cc(-c3c4c(nc(CCc5ccc(F)cc5)c3-c3n[nH]c(=O)o3)C35CC(CN3C4=O)C5)sc12 [Compound 281, (S)-5-(4-(7-((2,2-difluoro-4-methoxy-2,3-dihydro-1H-inden-1-yl)amino)thieno[2,3-c]pyridin-2-yl)-2-(4-fluorophenethyl)-5-oxo-5,7,8,9-tetrahydro-8,9a-methanopyrido[2,3-a]pyrrolizin-3-yl)-1,3,4-oxadiazol-2(3H)-one] | 0.733 nM | 0.239 nM
11 | COc1c(F)ccc2c1CC(F)(F)[C@H]2Nc1nccc2cc(-c3c4c(nc(CCc5ccc(F)cc5)c3-c3n[nH]c(=O)o3)[C@@H]3CCCN3C4=O)sc12 [Compound 282, 5-((S)-2-(4-fluorophenethyl)-5-oxo-4-(7-(((S)-2,2,5-trifluoro-4-methoxy-2,3-dihydro-1H-inden-1-yl)amino)thieno[2,3-c]pyridin-2-yl)-7,8,9,9a-tetrahydro-5H-pyrido[2,3-a]pyrrolizin-3-yl)-1,3,4-oxadiazol-2(3H)-one] | 0.464 nM | 0.0464 nM
12 | COc1c(F)ccc2c1CC(F)(F)[C@H]2Nc1nccc2cc(-c3c4c(nc(CCc5ccc(F)cc5)c3-c3n[nH]c(=O)o3)C35CC(CN3C4=O)C5)sc12 [Compound 283, (S)-5-(2-(4-fluorophenethyl)-5-oxo-4-(7-((2,2,5-trifluoro-4-methoxy-2,3-dihydro-1H-inden-1-yl)amino)thieno[2,3-c]pyridin-2-yl)-5,7,8,9-tetrahydro-8,9a-methanopyrido[2,3-a]pyrrolizin-3-yl)-1,3,4-oxadiazol-2(3H)-one] | 1.57 nM | 0.0191 nM
13 | COc1cccc2c1CC(F)(F)[C@H]2Nc1nccc2cc(-c3c4c(nc(CCc5ccc(F)cc5)c3-c3n[nH]c(=O)o3)[C@@H]3COCCN3C4=O)sc12 [Compound 284, (R)-4-(7-(((S)-2,2-difluoro-4-methoxy-2,3-dihydro-1H-inden-1-yl)amino)thieno[2,3-c]pyridin-2-yl)-2-(4-fluorophenethyl)-3-(5-oxo-4,5-dihydro-1,3,4-oxadiazol-2-yl)-7,8,10,10a-tetrahydro-5H-pyrido[2′,3′:3,4]pyrrolo[2,1-c][1,4]oxazin-5-one] | 81.6 nM | 4.23 nM
14 | O=C1c2c(nc(CCc3ccc(F)cc3)c(-c3n[nH]c(=O)o3)c2-c2cc3ccnc(N[C@@H]4CCc5c4ccc(F)c5OC(F)F)c3s2)C23CC(CN12)C3 [Compound 285, (R)-5-(4-(7-((4-(difluoromethoxy)-5-fluoro-2,3-dihydro-1H-inden-1-yl)amino)thieno[2,3-c]pyridin-2-yl)-2-(4-fluorophenethyl)-5-oxo-5,7,8,9-tetrahydro-8,9a-methanopyrido[2,3-a]pyrrolizin-3-yl)-1,3,4-oxadiazol-2(3H)-one] | 0.208 nM | 0.0136 nM
15 | COc1c(F)c(F)cc2c1CC[C@H]2Nc1nccc2cc(-c3c4c(nc(CCc5ccc(F)cc5)c3-c3n[nH]c(=O)o3)C35CC(CN3C4=O)C5)sc12 [Compound 286, (R)-5-(4-(7-((5,6-difluoro-4-methoxy-2,3-dihydro-1H-inden-1-yl)amino)thieno[2,3-c]pyridin-2-yl)-2-(4-fluorophenethyl)-5-oxo-8,9-dihydro-5H,7H-8,9a-methanopyrido[2,3-a]pyrrolizin-3-yl)-1,3,4-oxadiazol-2(3H)-one] | 0.175 nM | 0.00668 nM
16 | COc1c(F)ccc2c1CC[C@H]2Nc1nc(C(F)F)cc2cc(-c3c4c(nc(CCc5ccc(F)cc5)c3-c3n[nH]c(=O)o3)C35CC(CN3C4=O)C5)sc12 [Compound 287, (R)-5-(4-(5-(difluoromethyl)-7-((5-fluoro-4-methoxy-2,3-dihydro-1H-inden-1-yl)amino)thieno[2,3-c]pyridin-2-yl)-2-(4-fluorophenethyl)-5-oxo-8,9-dihydro-5H,7H-8,9a-methanopyrido[2,3-a]pyrrolizin-3-yl)-1,3,4-oxadiazol-2(3H)-one] | 0.35 nM | 0.0178 nM

— patent publication US12486269B2 (Aconcagua Bio, Inc., priority 2024, dated 2025)
